In patent US20030176479A1, “Use of selective EP4 receptor agonists for the treatment of liver failure, loss of patency of the ductus arteriosus, glaucoma or ocular hypertension” (priority 2002, published 2003):

Key:
Conditions in all cases: displacement of 3H-prostaglandin E2, 293S membranes, 1 hour at 25° C.
rat EP4 receptor = target: T1, rat EP4 receptor (Rattus norvegicus, UniProt P43114); assay: Rat EP4 receptor binding assay (3H-PGE2 displacement, 293S cell membranes)
T1 construct: expressed in transfected cells
Description: (§1) The compounds of Formula I or II, which are useful in the methods of the present invention, bind to the prostaglandin E2 type 4 receptor (EP4 receptor). The full-length coding sequence for the human EP1 receptor is made in accordance with the procedure in Funk et al., Journal of Biological Chemistry, 1993, 268, 26767-26772. The full-length rat EP2 receptor is made in accordance with the procedure in Nemoto et al., Prostaglandins and other Lipid Mediators, 1997, 54, 713-725. The full-length coding sequence for the human EP3 receptor is made in accordance with the procedure in Regan et al., British Journal of Pharmacology, 1994, 112, 377-385. The full-length coding sequence for the rat EP4 receptor is made in accordance with the procedure in Sando et al., Biochem. Biophys. Res. Comm. 1994, 200,1329-1333. These full-length receptors are used to prepare 293S cells expressing the human EP1, rat EP2, human EP3 or rat EP4 receptors.
(§2) Human EP1, Rat EP2, Human EP3, Rat EP4 Receptor Binding Assay
(§3) The full-length receptors described above are used to prepare 293S cells expressing the EP1, EP2, EP3, and EP4 receptors.
(§4) 293S cells expressing either the human EP1, rat EP2, human EP3 or rat EP4 prostaglandin E2 receptors are generated according to methods known to those skilled in the art. Typically, PCR (polymerase chain reaction) primers corresponding to the 5′ and 3′ ends of the published full length receptor are made according to the well known methods disclosed above and are used in an RT-PCR (reverse transcriptase-polymerase chain reaction) reaction using the total RNA from human kidney (for EP1), rat kidney (for EP2), human lung (for EP3), or rat kidney (EP4) as a source. PCR products are cloned by the TA overhang method into pCR2.1 (Invitrogen Corporation, Carlsbad, Calif.) and identity of the cloned receptor is confirmed by DNA sequencing. For expression of the rat EP2 receptor, the confirmed cDNA is subcloned into the mammalian expression vector PURpCl, a vector generated by subcloning the selectable marker for puromycin resistance into the mammalian expression vector pCl (Promega, Madison, Wis.)
(§5) 293S cells are transfected with either the cloned human EP1 or EP3 receptor in pcDNA3 by electroporation. Stable cell lines expressing either the human EP1 or EP3 receptor are established following selection of transfected cells with G418. 293S cells are transfected with the cloned rat EP2 receptor in PURpCi by lipid mediated transfection. Stable cell lines expressing the rat EP2 receptor are established following selection of transfected cells with puromycin. 293S cells are transfected with the cloned rat EP4 receptor in pcDNA3 by lipid mediated transfection. Stable cell lines expressing the rat EP4 receptor are established following selection of transfected cells with Geneticin® (Invitrogen, Carlsbad, Calif.).
(§6) Clonal cell lines expressing the maximal number of receptors are chosen following a whole cell ^3H-PGE2 binding assay using unlabeled PGE2 as a competitor.
(§7) Membrane Preparation: All operations are performed at 4° C. Transfected cells expressing either prostaglandin E2 type 1, type 2, type 3, or type 4 (EP1, EP2, EP3, or EP4, respectively) receptors are harvested and suspended to 2 million cells per ml in Buffer A [50 mM Tris-HCl (pH 7.4), 10 mM MgCI2, 1 mM EDTA, 1 mM Pefabloc peptide, (Boehringer Mannheim Corp., Indianapolis, Ind.), 10 uM Phosporamidon peptide, (Sigma, St. Louis, Mo.), 1 uM pepstatin A peptide, (Sigma, St. Louis, Mo.), 10 uM elastatinal peptide, (Sigma, St. Louis, Mo.), 100 uM antipain peptide, (Sigma, St. Louis, Mo.)]. The cells are lysed by sonification with a Branson Sonifier (Branson Ultrasonics Corporation, Danbury, Conn.) in 2 fifteen-second bursts. Unlysed cells and debris are removed by centrifugation at 100 ×g for 10 min. Membranes are then harvested by centrifugation at 45,000×g for 30 minutes. […]

human EP3 receptor = target: T2, human EP3 receptor (Homo sapiens, UniProt P43115); assay: Human EP3 receptor binding assay (3H-PGE2 displacement, 293S cell membranes)
T2 construct: expressed in transfected cells
T2 sequence (P43115 1-390): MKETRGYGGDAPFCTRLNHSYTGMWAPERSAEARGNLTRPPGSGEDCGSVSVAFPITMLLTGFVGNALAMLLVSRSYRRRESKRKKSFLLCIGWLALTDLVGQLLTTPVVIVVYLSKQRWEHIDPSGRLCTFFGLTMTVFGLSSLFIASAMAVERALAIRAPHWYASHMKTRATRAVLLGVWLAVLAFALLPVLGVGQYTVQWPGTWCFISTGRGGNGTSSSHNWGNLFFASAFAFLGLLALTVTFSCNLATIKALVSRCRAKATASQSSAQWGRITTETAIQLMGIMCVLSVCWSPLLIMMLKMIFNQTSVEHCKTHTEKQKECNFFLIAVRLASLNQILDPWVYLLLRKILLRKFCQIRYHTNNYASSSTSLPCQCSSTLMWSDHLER
Description: as §1, §2, §3, §4, §5, §6, §7

human EP1 receptor = target: T3, human EP1 receptor (Homo sapiens, UniProt P34995); assay: Human EP1 receptor binding assay (3H-PGE2 displacement, 293S cell membranes)
T3 construct: expressed in transfected cells
T3 sequence (P34995 1-402): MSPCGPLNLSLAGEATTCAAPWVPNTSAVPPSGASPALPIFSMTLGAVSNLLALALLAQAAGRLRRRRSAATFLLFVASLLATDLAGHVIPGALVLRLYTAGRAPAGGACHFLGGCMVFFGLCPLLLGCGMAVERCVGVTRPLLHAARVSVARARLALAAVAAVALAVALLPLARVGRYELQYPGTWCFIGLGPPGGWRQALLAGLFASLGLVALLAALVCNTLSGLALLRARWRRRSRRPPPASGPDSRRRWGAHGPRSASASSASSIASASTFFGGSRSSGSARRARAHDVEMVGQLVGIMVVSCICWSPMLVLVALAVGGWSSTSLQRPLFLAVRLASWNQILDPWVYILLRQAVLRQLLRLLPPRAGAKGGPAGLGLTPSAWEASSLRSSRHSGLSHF
Description: as §1, §2, §3, §4, §5, §6, §7

rat EP2 receptor = target: T4, rat EP2 receptor (Rattus norvegicus, UniProt Q62928); assay: Rat EP2 receptor binding assay (3H-PGE2 displacement, 293S cell membranes)
T4 construct: The full-length rat EP2 receptor is made in accordance with the procedure in Nemoto et al; expressed in transfected cells
Description: as §1, §2, §3, §4, §5, §6, §7

T4 sequence (Q62928 whole entry): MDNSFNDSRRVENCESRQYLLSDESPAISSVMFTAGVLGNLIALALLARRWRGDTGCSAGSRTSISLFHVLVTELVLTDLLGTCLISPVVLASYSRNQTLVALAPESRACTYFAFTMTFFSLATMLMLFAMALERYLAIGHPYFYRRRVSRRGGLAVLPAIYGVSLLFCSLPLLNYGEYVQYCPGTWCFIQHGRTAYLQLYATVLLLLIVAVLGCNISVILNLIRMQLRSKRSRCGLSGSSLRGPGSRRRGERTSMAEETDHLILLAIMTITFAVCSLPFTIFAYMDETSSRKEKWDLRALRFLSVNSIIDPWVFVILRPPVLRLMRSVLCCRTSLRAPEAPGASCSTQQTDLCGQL
T1 sequence (P43114 whole entry): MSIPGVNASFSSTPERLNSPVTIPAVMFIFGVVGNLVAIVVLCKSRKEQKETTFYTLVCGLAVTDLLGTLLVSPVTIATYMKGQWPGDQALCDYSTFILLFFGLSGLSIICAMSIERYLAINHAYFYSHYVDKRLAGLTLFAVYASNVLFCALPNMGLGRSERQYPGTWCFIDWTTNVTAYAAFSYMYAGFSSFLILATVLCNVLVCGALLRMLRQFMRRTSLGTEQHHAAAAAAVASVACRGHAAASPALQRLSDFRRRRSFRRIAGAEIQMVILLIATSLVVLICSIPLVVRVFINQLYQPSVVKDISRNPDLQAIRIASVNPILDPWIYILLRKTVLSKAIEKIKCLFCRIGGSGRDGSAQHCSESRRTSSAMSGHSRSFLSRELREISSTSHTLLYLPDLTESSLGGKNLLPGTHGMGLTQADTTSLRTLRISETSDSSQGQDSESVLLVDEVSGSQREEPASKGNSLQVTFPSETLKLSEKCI

| IC50 (rat EP4 receptor) [µM] | IC50 (human EP3 receptor) [µM] | IC50 (human EP1 receptor) [µM] | IC50 (rat EP2 receptor) [µM] | Compound |
| --- | --- | --- | --- | --- |
| 0.022 | > 3.2 | > 3.2 | > 3.2 | O=C(O)CCCCCCN1C(=O)CC[C@@H]1CC[C@@H](O)Cc1cccc(Cl)c1 [Example 1, 7-{2S-[4-(3-Chloro-phenyl)-3R-hydroxy-butyl]-5-oxo-pyrrolidin-1-yl}-heptanoic acid] |
| 0.021 | > 3.2 | > 3.2 | 2.76 | O=C(O)CCCCCCN1C(=O)CC[C@@H]1CC[C@@H](O)Cc1cccc(C(F)(F)F)c1 [Example 2, 7-{2S-[3R-hydroxy-4-(3-trifluoromethyl-phenyl)-butyl]-5-oxo-pyrrolidin-1-yl}-heptanoic acid] |
| 0.038 | > 3.2 | > 3.2 | 2.37 | O=C1CC[C@H](CCC(O)Cc2cccc(Cl)c2)N1CCCCCCc1nn[nH]n1 (stereo partly drawn) [Example 3, 5S-[4-(3-Chloro-phenyl)-3-hydroxy-butyl]-1-[6-(2H-tetrazol-5-yl)-hexyl]-pyrrolidin-2-one] |
| 0.033 | > 3.2 | > 3.2 | > 3.2 | O=C1CC[C@H](CC[C@@H](O)Cc2cccc(C(F)(F)F)c2)N1CCCCCCc1nn[nH]n1 [Example 4, 5S-[3R-Hydroxy-4-(3-trifluoromethyl-phenyl)-butyl]-1-[6-(2H-tetrazol-5-yl)-hexyl]-pyrrolidin-2-one] |
| 0.05 | > 3.2 | > 3.2 | 3.05 | O=C1CCC(CCC(O)Cc2cccc(-c3ccccc3)c2)N1CCCCCCc1nn[nH]n1 (stereo not drawn) [Example 6, 5-(4-Biphenyl-3-yl-3-hydroxy-butyl)-1-[6-(2H-tetrazol-5-yl)-hexyl]-pyrrolidin-2-one] |
| 0.054 | > 3.2 | > 3.2 | > 3.2 | O=C(O)CCCCCCN1C(=O)CCC1CCC(O)Cc1ccccc1 (stereo not drawn) [Example 9, 7-(2-(3-hydroxy-4-phenyl-butyl)-5-oxo-pyrrolidin-1-yl)-heptanoic acid] |
